From patent US12077503B2, “Substituted cyclic amides and their use as herbicides” (FMC CORPORATION, priority 2015, dated 2024)

How the values were obtained:
Assay in all cases: Test C preemergence
Type in all cases: in vivo
[1] = test system: velvetleaf (Abutilon theophrasti); details: for Plant response rating, Velvetleaf: scale 0 to 100, 0 no effect, 100 complete control
How it was run: (§1)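 Scores of 0 to 100 reflect visual comparison with control plants, where 0 means no effect and 100 complete control, made 13 to 15 d after treatment. Application was preemergence to seeds in loam-sand soil or postemergence to plants 2 to 18 cm tall in peat-based mix, using a surfactant-containing solvent formulation.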

[2] = test system: waterhemp (common waterhemp, Amaranthus rudis); details: for Plant response rating, Waterhemp: scale 0 to 100, 0 no effect, 100 complete control
How it was run: as §1

[3] = test system: nutsedge, yellow (yellow nutsedge, Cyperus esculentus); details: for Plant response rating, Nutsedge, Yellow: scale 0 to 100, 0 no effect, 100 complete control
How it was run: as §1

[4] = test system: crabgrass, large (large crabgrass, Digitaria sanguinalis); details: for Plant response rating, Crabgrass, Large: scale 0 to 100, 0 no effect, 100 complete control
How it was run: as §1

[5] = test system: foxtail, giant (giant foxtail, Setaria faberii); details: for Plant response rating, Foxtail, Giant: scale 0 to 100, 0 no effect, 100 complete control
How it was run: as §1

[6] = test system: lambsquarters (Chenopodium album); details: for Plant response rating, Lambsquarters: scale 0 to 100, 0 no effect, 100 complete control
How it was run: as §1

[7] = test system: ryegrass, Italian (Italian ryegrass, Lolium multiflorum); details: for Plant response rating, Ryegrass, Italian: scale 0 to 100, 0 no effect, 100 complete control
How it was run: as §1

corn (Zea mays) = details: for Plant response rating, Corn: scale 0 to 100, 0 no effect, 100 complete control
How it was run: as §1

[8] = test system: Galium (catchweed bedstraw, Galium aparine); details: for Plant response rating, Galium: scale 0 to 100, 0 no effect, 100 complete control
How it was run: as §1

[9] = test system: pigweed (Amaranthus retroflexus); details: for Plant response rating, Pigweed: scale 0 to 100, 0 no effect, 100 complete control
How it was run: as §1

[10] = test system: barnyardgrass (Echinochloa crus-galli); details: for Plant response rating, Barnyardgrass: scale 0 to 100, 0 no effect, 100 complete control
How it was run: as §1

[11] = test system: ragweed (common ragweed, Ambrosia elatior); details: for Plant response rating, Ragweed: scale 0 to 100, 0 no effect, 100 complete control
How it was run: as §1

soybean (Glycine max) = details: for Plant response rating, Soybean: scale 0 to 100, 0 no effect, 100 complete control
How it was run: as §1

[12] = test system: johnsongrass (Sorghum halepense); details: for Plant response rating, Johnsongrass: scale 0 to 100, 0 no effect, 100 complete control
How it was run: as §1

[13] = test system: blackgrass (Alopecurus myosuroides); details: for Plant response rating, Blackgrass: scale 0 to 100, 0 no effect, 100 complete control
How it was run: as §1

[14] = test system: oilseed rape (Brassica napus); details: for Plant response rating, Oilseed Rape: scale 0 to 100, 0 no effect, 100 complete control
How it was run: as §1

[15] = test system: wheat (winter wheat, Triticum aestivum); details: for Plant response rating, Wheat: scale 0 to 100, 0 no effect, 100 complete control
How it was run: as §1

[16] = test system: morningglory (Ipomoea coccinea); details: for Plant response rating, Morningglory: scale 0 to 100, 0 no effect, 100 complete control
How it was run: as §1

[17] = 31 g ai/ha, 0 is no effect, 100 is complete control

CN1CC(c2cccc(OC(F)F)c2)C(C(=O)Nc2ccc(F)cc2F)C1=O (stereo not drawn) [Compound 617]
65: Plant response rating, Johnsongrass ([12]; 125 g ai/ha)
98: Plant response rating, Foxtail, Giant ([5]; 250 g ai/ha)
45: Plant response rating, Velvetleaf ([1]; 250 g ai/ha) | Plant response rating, Ryegrass, Italian ([7]; 62 g ai/ha) | Plant response rating, Pigweed ([9]; 125 g ai/ha) | Plant response rating, Wheat ([15]; 125 g ai/ha)
100: Plant response rating, Crabgrass, Large ([4]; 125 g ai/ha) | Plant response rating, Crabgrass, Large ([4]; 250 g ai/ha)
0: Plant response rating (scale of 0 to 100), Nutsedge, Yellow [3, 17] | Plant response rating, Nutsedge, Yellow ([3]; 62 g ai/ha) | Plant response rating (scale of 0 to 100), Corn (corn (Zea mays); [17]) | Plant response rating (scale of 0 to 100), Galium [8, 17] | Plant response rating (scale of 0 to 100), Soybean (soybean (Glycine max); [17]) | Plant response rating, Soybean (soybean (Glycine max); 125 g ai/ha) | Plant response rating (scale of 0 to 100), Wheat [15, 17] | Plant response rating (scale of 0 to 100), Morningglory [16, 17] | Plant response rating, Morningglory ([16]; 62 g ai/ha)
30: Plant response rating (scale of 0 to 100), Lambsquarters [6, 17] | Plant response rating, Johnsongrass ([12]; 62 g ai/ha) | Plant response rating (scale of 0 to 100), Oilseed Rape [14, 17]
15: Plant response rating, Wheat ([15]; 62 g ai/ha)
55: Plant response rating, Lambsquarters ([6]; 62 g ai/ha)
25: Plant response rating, Waterhemp ([2]; 62 g ai/ha) | Plant response rating (scale of 0 to 100), Johnsongrass [12, 17] | Plant response rating, Morningglory ([16]; 125 g ai/ha)
10: Plant response rating (scale of 0 to 100), Velvetleaf [1, 17] | Plant response rating, Velvetleaf ([1]; 62 g ai/ha) | Plant response rating (scale of 0 to 100), Ryegrass, Italian [7, 17] | Plant response rating (scale of 0 to 100), Pigweed [9, 17] | Plant response rating (scale of 0 to 100), Ragweed [11, 17] | Plant response rating, Ragweed ([11]; 62 g ai/ha) | Plant response rating, Soybean (soybean (Glycine max); 62 g ai/ha)
20: Plant response rating, Velvetleaf ([1]; 125 g ai/ha) | Plant response rating (scale of 0 to 100), Waterhemp [2, 17] | Plant response rating, Nutsedge, Yellow ([3]; 125 g ai/ha) | Plant response rating, Pigweed ([9]; 62 g ai/ha) | Plant response rating, Soybean (soybean (Glycine max); 250 g ai/ha) | Plant response rating (scale of 0 to 100), Blackgrass [13, 17] | Plant response rating, Blackgrass ([13]; 62 g ai/ha)
90: Plant response rating (scale of 0 to 100), Foxtail, Giant [5, 17] | Plant response rating, Foxtail, Giant ([5]; 62 g ai/ha) | Plant response rating, Ryegrass, Italian ([7]; 250 g ai/ha) | Plant response rating, Barnyardgrass ([10]; 62 g ai/ha) | Plant response rating, Blackgrass ([13]; 250 g ai/ha) | Plant response rating, Oilseed Rape ([14]; 125 g ai/ha) | Plant response rating, Oilseed Rape ([14]; 250 g ai/ha)
50: Plant response rating, Ryegrass, Italian ([7]; 125 g ai/ha)
95: Plant response rating (scale of 0 to 100), Crabgrass, Large [4, 17] | Plant response rating, Crabgrass, Large ([4]; 62 g ai/ha) | Plant response rating, Foxtail, Giant ([5]; 125 g ai/ha) | Plant response rating, Barnyardgrass ([10]; 125 g ai/ha) | Plant response rating, Barnyardgrass ([10]; 250 g ai/ha)
80: Plant response rating, Waterhemp ([2]; 250 g ai/ha) | Plant response rating, Lambsquarters ([6]; 250 g ai/ha) | Plant response rating, Corn (corn (Zea mays); 250 g ai/ha) | Plant response rating, Wheat ([15]; 250 g ai/ha)
40: Plant response rating, Corn (corn (Zea mays); 62 g ai/ha) | Plant response rating, Ragweed ([11]; 125 g ai/ha) | Plant response rating, Morningglory ([16]; 250 g ai/ha)
35: Plant response rating, Nutsedge, Yellow ([3]; 250 g ai/ha)
85: Plant response rating, Galium ([8]; 62 g ai/ha) | Plant response rating, Galium ([8]; 125 g ai/ha) | Plant response rating, Galium ([8]; 250 g ai/ha) | Plant response rating (scale of 0 to 100), Barnyardgrass [10, 17] | Plant response rating, Blackgrass ([13]; 125 g ai/ha) | Plant response rating, Oilseed Rape ([14]; 62 g ai/ha)
70: Plant response rating, Waterhemp ([2]; 125 g ai/ha) | Plant response rating, Lambsquarters ([6]; 125 g ai/ha) | Plant response rating, Ragweed ([11]; 250 g ai/ha)
75: Plant response rating, Corn (corn (Zea mays); 125 g ai/ha) | Plant response rating, Pigweed ([9]; 250 g ai/ha) | Plant response rating, Johnsongrass ([12]; 250 g ai/ha)
